Our source for the EC50 values is US12703729B2, “GIP agonist compounds and methods” (Zealand Pharma A/S, priority 2014, dated 2026).

SMILES strings stand for the structures. Starred links: 1 amine or outer side, 2 acyl side, 3 side chain; linkers in the order of their positions; H or OH if unused. Non-standard residues stand in square brackets, D forms with d. Residues, ends and D or L forms follow the SMILES beside them. Groups on a side chain read outwards from the residue. *: point of attachment. X1 = O=C(O)CCCCCCCCCCCCCCCCCCC(=O)N1CCN(CC(=O)*)CC1; C20 diacid = O=C(O)CCCCCCCCCCCCCCCCCCC(=O)*; γGlu = O=C(O)[C@H](CCC(=O)[*:2])N[*:1]; AEEA = NCCOCCOCC(=O)O; Aib = CC(C)(N)C(=O)O A value given as a limit tells only on which side of the number the result lay.

Assay [1] addresses T1, human GIP receptor (GIP R) (Homo sapiens, UniProt P48546).
T1 sequence (P48546 22-466): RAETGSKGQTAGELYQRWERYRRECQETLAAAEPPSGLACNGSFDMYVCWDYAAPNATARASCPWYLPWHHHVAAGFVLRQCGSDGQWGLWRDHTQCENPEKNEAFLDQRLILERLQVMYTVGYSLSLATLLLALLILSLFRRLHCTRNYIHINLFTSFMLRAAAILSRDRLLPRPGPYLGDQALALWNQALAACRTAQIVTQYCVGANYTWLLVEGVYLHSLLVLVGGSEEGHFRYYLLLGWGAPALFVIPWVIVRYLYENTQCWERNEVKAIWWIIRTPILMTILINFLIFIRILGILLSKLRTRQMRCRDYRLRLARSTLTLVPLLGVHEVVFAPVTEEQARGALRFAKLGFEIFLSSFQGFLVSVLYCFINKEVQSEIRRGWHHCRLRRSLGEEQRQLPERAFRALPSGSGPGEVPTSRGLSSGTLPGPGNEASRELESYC
In words: Activity assay at human GIP receptor, cAMP induction (AlphaScreen), Example 3. (In general: In Alpha technology, singlet oxygen from a donor bead excites a nearby acceptor bead.)

Assay [2] has as its target human GLP-1 receptor (GLP-1R) (Homo sapiens, UniProt P43220). In words: Activity assay at human GLP-1 receptor, cAMP induction (AlphaScreen), Example 3.
For assay [3], the target named is T2, human GIP R (Homo sapiens, UniProt P48546).
T2 sequence (P48546 22-466): T1 sequence (P48546 22-466)
The assay can be described thus: cell-based.

Sequence of human GLP-1 receptor (GLP-1R) (P43220 24-463): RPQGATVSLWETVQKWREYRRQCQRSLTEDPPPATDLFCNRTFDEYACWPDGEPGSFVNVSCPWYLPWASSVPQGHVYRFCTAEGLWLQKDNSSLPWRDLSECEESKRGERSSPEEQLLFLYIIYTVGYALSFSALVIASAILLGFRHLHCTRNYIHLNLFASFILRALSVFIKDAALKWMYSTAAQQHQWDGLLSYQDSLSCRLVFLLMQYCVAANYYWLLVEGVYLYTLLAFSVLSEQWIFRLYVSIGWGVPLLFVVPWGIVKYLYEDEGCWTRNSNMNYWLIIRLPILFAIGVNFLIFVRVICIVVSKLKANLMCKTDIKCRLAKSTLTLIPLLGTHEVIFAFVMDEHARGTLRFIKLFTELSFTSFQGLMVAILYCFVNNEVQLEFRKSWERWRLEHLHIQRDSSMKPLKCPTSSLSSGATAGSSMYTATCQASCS

As a reminder, the EC50 is the concentration at which the effect is half-maximal. As to `CC[C@H](C)[C@H](NC(=O)[C@H](CCCCN)NC(=O)[C@H](CC(=O)O)NC(=O)[C@H](CC(C)C)NC(=O)[C@H](CCC(=O)O)NC(=O)[C@@H](NC(=O)[C@H](CO)NC(=O)[C@H](Cc1ccc(O)cc1)NC(=O)[C@H](CC(=O)O)NC(=O)[C@H](CO)NC(=O)[C@@H](NC(=O)[C@H](Cc1ccccc1)NC(=O)[C@@H](NC(=O)CNC(=O)[C@H](CCC(=O)O)NC(=O)C(C)(C)NC(=O)[C@@H](N)Cc1ccc(O)cc1)[C@@H](C)O)[C@@H](C)CC)[C@@H](C)CC)C(=O)N[C@@H](C)C(=O)N[C@@H](C)C(=O)N[C@@H](CCC(N)=O)C(=O)N[C@@H](CC(=O)O)C(=O)N[C@@H](Cc1ccccc1)C(=O)N[C@H](C(=O)N[C@@H](CCC(=O)O)C(=O)N[C@@H](Cc1c[nH]c2ccccc12)C(=O)N[C@@H](CC(C)C)C(=O)N[C@@H](CC(C)C)C(=O)N[C@@H](C)C(=O)NCC(=O)N1CCC[C@H]1C(=O)N[C@@H](CO)C(=O)N[C@@H](CO)C(=O)NCC(=O)N[C@@H](C)C(=O)N1CCC[C@H]1C(=O)N1CCC[C@H]1C(=O)N1CCC[C@H]1C(=O)N[C@@H](CO)C(=O)N[C@@H](CCCCNC(=O)COCCOCCNC(=O)COCCOCCNC(=O)CN1CCN(C(=O)CCCCCCCCCCCCCCCCCCC(=O)O)CC1)C(N)=O)[C@@H](C)CC` [Compound 26] (H-Y[Aib]EGTFISDYSIELDKIAAQDFIEWLLAGPSSGAPPPSK([AEEA-AEEA-X1])-NH2), the EC50 in assay [1] is 0.032 nM; in assay [2], over 10 nM; in assay [3], 0.017 nM.

Regarding `CC[C@H](C)[C@H](NC(=O)[C@H](CCCCN)NC(=O)[C@H](CC(=O)O)NC(=O)[C@H](CC(C)C)NC(=O)[C@H](CCC(=O)O)NC(=O)[C@@H](NC(=O)[C@H](CO)NC(=O)[C@H](Cc1ccc(O)cc1)NC(=O)[C@H](CC(=O)O)NC(=O)[C@H](CO)NC(=O)[C@@H](NC(=O)[C@H](Cc1ccccc1)NC(=O)[C@@H](NC(=O)CNC(=O)[C@H](CCC(=O)O)NC(=O)C(C)(C)NC(=O)[C@@H](N)Cc1ccc(O)cc1)[C@@H](C)O)[C@@H](C)CC)[C@@H](C)CC)C(=O)N[C@@H](C)C(=O)N[C@@H](C)C(=O)N[C@@H](CCC(N)=O)C(=O)N[C@@H](CC(=O)O)C(=O)N[C@@H](Cc1ccccc1)C(=O)N[C@H](C(=O)N[C@@H](CCC(=O)O)C(=O)N[C@@H](Cc1c[nH]c2ccccc12)C(=O)N[C@@H](CC(C)C)C(=O)N[C@@H](CC(C)C)C(=O)N[C@@H](C)C(=O)NCC(=O)N1CCC[C@H]1C(=O)N[C@@H](CO)C(=O)N[C@@H](CO)C(=O)NCC(=O)N[C@@H](C)C(=O)N1CCC[C@H]1C(=O)N1CCC[C@H]1C(=O)N1CCC[C@H]1C(=O)N[C@@H](CO)C(=O)N[C@@H](CCCCNC(=O)COCCOCCNC(=O)COCCOCCNC(=O)CC[C@H](NC(=O)CCCCCCCCCCCCCCCCCCC(=O)O)C(=O)O)C(N)=O)C(C)C` [Compound 27] (H-Y[Aib]EGTFISDYSIELDKIAAQDFVEWLLAGPSSGAPPPSK([AEEA-AEEA-γGlu-C20 diacid])-NH2), the EC50 is 0.017 nM in assay [1], over 10 nM in assay [2] and 0.013 nM in assay [3].

Regarding `CC[C@H](C)[C@H](NC(=O)[C@H](CCCCN)NC(=O)[C@H](CC(=O)O)NC(=O)[C@H](CC(C)C)NC(=O)[C@H](CCC(=O)O)NC(=O)[C@@H](NC(=O)[C@H](CO)NC(=O)[C@H](Cc1ccc(O)cc1)NC(=O)[C@H](CC(=O)O)NC(=O)[C@H](CO)NC(=O)[C@@H](NC(=O)[C@H](Cc1ccccc1)NC(=O)[C@@H](NC(=O)CNC(=O)[C@H](CCC(=O)O)NC(=O)C(C)(C)NC(=O)[C@@H](N)Cc1ccc(O)cc1)[C@@H](C)O)[C@@H](C)CC)[C@@H](C)CC)C(=O)N[C@@H](C)C(=O)N[C@@H](CCC(N)=O)C(=O)N[C@@H](CCCNC(=N)N)C(=O)N[C@@H](C)C(=O)N[C@@H](Cc1ccccc1)C(=O)N[C@H](C(=O)N[C@@H](CCC(=O)O)C(=O)N[C@@H](Cc1c[nH]c2ccccc12)C(=O)N[C@@H](CC(C)C)C(=O)N[C@@H](CC(C)C)C(=O)N[C@@H](C)C(=O)N[C@@H](CCC(N)=O)C(=O)NCC(=O)N1CCC[C@H]1C(=O)N[C@@H](CO)C(=O)N[C@@H](CO)C(=O)NCC(=O)N[C@@H](C)C(=O)N1CCC[C@H]1C(=O)N1CCC[C@H]1C(=O)N1CCC[C@H]1C(=O)N[C@@H](CO)C(=O)N[C@@H](CCCCNC(=O)COCCOCCNC(=O)COCCOCCNC(=O)CC[C@H](NC(=O)CCCCCCCCCCCCCCCCCCC(=O)O)C(=O)O)C(N)=O)[C@@H](C)CC` [Compound 28] (H-Y[Aib]EGTFISDYSIELDKIAQRAFIEWLLAQGPSSGAPPPSK([AEEA-AEEA-γGlu-C20 diacid])-NH2), the EC50 was 0.013 nM in assay [1], over 3 nM in assay [2] and 0.007 nM in assay [3].

With `CC[C@H](C)[C@H](NC(=O)[C@H](CO)NC(=O)[C@H](Cc1ccc(O)cc1)NC(=O)[C@H](CC(=O)O)NC(=O)[C@H](CO)NC(=O)[C@@H](NC(=O)[C@H](Cc1ccccc1)NC(=O)[C@@H](NC(=O)CNC(=O)[C@H](CCC(=O)O)NC(=O)C(C)(C)NC(=O)[C@@H](N)Cc1ccc(O)cc1)[C@@H](C)O)[C@@H](C)CC)C(=O)N[C@@H](CCC(=O)O)C(=O)N[C@@H](CC(C)C)C(=O)N[C@@H](CC(=O)O)C(=O)N[C@@H](CCCCN)C(=O)N[C@@H](CCCCNC(=O)COCCOCCNC(=O)COCCOCCNC(=O)CC[C@H](NC(=O)CCCCCCCCCCCCCCCCCCC(=O)O)C(=O)O)C(=O)N[C@@H](C)C(=O)N[C@@H](C)C(=O)N[C@@H](CCC(N)=O)C(=O)N[C@@H](C)C(=O)N[C@@H](Cc1ccccc1)C(=O)N[C@H](C(=O)N[C@@H](CC(N)=O)C(=O)N[C@@H](Cc1c[nH]c2ccccc12)C(=O)N[C@@H](CC(C)C)C(=O)N[C@@H](CC(C)C)C(=O)N[C@@H](C)C(=O)NCC(=O)N1CCC[C@H]1C(=O)N[C@@H](CO)C(=O)N[C@@H](CO)C(=O)NCC(=O)N[C@@H](C)C(=O)N1CCC[C@H]1C(=O)N1CCC[C@H]1C(=O)N1CCC[C@H]1C(=O)N[C@@H](CO)C(N)=O)C(C)C` [Compound 29] (H-Y[Aib]EGTFISDYSIELDKK([AEEA-AEEA-γGlu-C20 diacid])AAQAFVNWLLAGPSSGAPPPS-NH2), the 50% effective concentration (EC50) was 0.007 nM in assay [1], over 100 nM in assay [2] and 0.014 nM in assay [3].

Consider `CC[C@H](C)[C@H](NC(=O)[C@H](CO)NC(=O)[C@H](Cc1ccc(O)cc1)NC(=O)[C@H](CC(=O)O)NC(=O)[C@H](CO)NC(=O)[C@@H](NC(=O)[C@H](Cc1ccccc1)NC(=O)[C@@H](NC(=O)CNC(=O)[C@H](CCC(=O)O)NC(=O)C(C)(C)NC(=O)[C@@H](N)Cc1ccc(O)cc1)[C@@H](C)O)[C@@H](C)CC)C(=O)N[C@@H](CCC(=O)O)C(=O)N[C@@H](CC(C)C)C(=O)N[C@@H](CC(=O)O)C(=O)N[C@@H](CCCCN)C(=O)N[C@@H](CCCCNC(=O)COCCOCCNC(=O)COCCOCCNC(=O)CC[C@H](NC(=O)CCCCCCCCCCCCCCCCCCC(=O)O)C(=O)O)C(=O)N[C@@H](C)C(=O)N[C@@H](C)C(=O)N[C@@H](CCC(N)=O)C(=O)N[C@@H](CC(=O)O)C(=O)N[C@@H](Cc1ccccc1)C(=O)N[C@H](C(=O)N[C@@H](CC(N)=O)C(=O)N[C@@H](Cc1c[nH]c2ccccc12)C(=O)N[C@@H](CC(C)C)C(=O)N[C@@H](CC(C)C)C(=O)N[C@@H](C)C(=O)N[C@@H](C)C(=O)NCC(=O)N1CCC[C@H]1C(=O)N[C@@H](CO)C(=O)N[C@@H](CO)C(=O)NCC(=O)N[C@@H](C)C(=O)N1CCC[C@H]1C(=O)N1CCC[C@H]1C(=O)N1CCC[C@H]1C(=O)N[C@@H](CO)C(N)=O)C(C)C` [Compound 30] (H-Y[Aib]EGTFISDYSIELDKK([AEEA-AEEA-γGlu-C20 diacid])AAQDFVNWLLAAGPSSGAPPPS-NH2), for which the EC50 was 0.014 nM in assay [1], over 10 nM in assay [2] and 0.009 nM in assay [3].

Take `CC[C@H](C)[C@H](NC(=O)[C@H](Cc1ccccc1)NC(=O)[C@H](CC(=O)O)NC(=O)[C@H](CCC(N)=O)NC(=O)[C@H](C)NC(=O)[C@H](C)NC(=O)[C@H](CCCCNC(=O)COCCOCCNC(=O)COCCOCCNC(=O)CC[C@H](NC(=O)CCCCCCCCCCCCCCCCCCC(=O)O)C(=O)O)NC(=O)[C@H](CCCCN)NC(=O)[C@H](CC(=O)O)NC(=O)[C@H](CC(C)C)NC(=O)[C@H](CCC(=O)O)NC(=O)[C@@H](NC(=O)[C@H](CO)NC(=O)[C@H](Cc1ccc(O)cc1)NC(=O)[C@H](CC(=O)O)NC(=O)[C@H](CO)NC(=O)[C@@H](NC(=O)[C@H](Cc1ccccc1)NC(=O)[C@@H](NC(=O)CNC(=O)[C@H](CCC(=O)O)NC(=O)C(C)(C)NC(=O)[C@@H](N)Cc1ccc(O)cc1)[C@@H](C)O)[C@@H](C)CC)[C@@H](C)CC)C(=O)N[C@@H](CC(N)=O)C(=O)N[C@@H](Cc1c[nH]c2ccccc12)C(=O)N[C@@H](CC(C)C)C(=O)N[C@@H](CC(C)C)C(=O)N[C@@H](C)C(=O)NCC(=O)N1CCC[C@H]1C(=O)N[C@@H](CO)C(=O)N[C@@H](CO)C(=O)NCC(=O)N[C@@H](C)C(=O)N1CCC[C@H]1C(=O)N1CCC[C@H]1C(=O)N1CCC[C@H]1C(=O)N[C@@H](CO)C(N)=O` [Compound 31] (H-Y[Aib]EGTFISDYSIELDKK([AEEA-AEEA-γGlu-C20 diacid])AAQDFINWLLAGPSSGAPPPS-NH2): the EC50 in assay [1] was 0.009 nM; in assay [2] it was over 100 nM; in assay [3], 0.012 nM.
